Reference: patent US7501529B2, “7-Ethynyl-2,4,9-trithiaadamantane and related methods” (The University of Akron, priority 2003, dated 2009)

Legend:
[1] = comparison value, source not stated; cited from earlier work
[2] = Solubility in water / D2O, observed during 1H NMR experiments; assay type: physicochemical
Description: The formation of inclusion complex between 7-hydroxycarbonyl-2,4,9-trithiaadamantane and β-cyclodextrin was evident in the 1H NMR experiments. […] Thus, a 1:1 mixture of 7-hydroxycarbonyl-2,4,9-trithiaadamantane and β-cyclodextrin (3.5×10^−3 M) formed a clear solution in D2O in an NMR sampling tube. At the low concentration limit, this change in the solubility of 7-hydroxycarbonyl-2,4,9-trithiaadamantane in water is attributed to the molecular interactions between water insoluble 7-hydroxycarbonyl-2,4,9-trithiaadamantane and water soluble β-cyclodextrin. […] Similar phenomena in cyclodextrin inclusion complexes have been observed previously. Without being bound by theory, these spectral changes were attributed at least in part to the dynamic exchanges between uncomplexed species and the intimately included 7-hydroxycarbonyl-2,4,9-trithiaadamantane in β-cyclodextrin in aqueous solutions. […] The simultaneous observation of changes in the chemical shift of the β-cyclodextrin at H-3 and H-5 also indicated the binding interaction was dominated by the inclusion of the 7-hydroxycarbonyl-2,4,9-trithiaadamantane guest inside the host β-cyclodextrin cavity.

[3] = 1H NMR titration, stability constant of the inclusion complex (Benesi-Hildebrand); assay type: physicochemical
Description: The equilibrium constant of the formation of the inclusion complex provides a relative measurement of the thermodynamic driving force for the guest and host binding. NMR Titration was performed by measuring chemical shift changes as a function of the relative concentrations of the host and guest. The changes of the chemical shifts were measured for the H-3 and H-5 peaks of the host and Ha and Hb of the guest in the following scheme, which represents the inclusion complex formation of 7-hydroxycarbonyl-2,4,9-trithiaadamantane with β-cyclodextrin:
The data in Table 1 were also used to calculate the stability constant of the 7-hydroxycarbonyl-2,4,9-trithiaadamantane/β-cyclodextrin inclusion complex by applying the Benesi-Hildebrand equation having the formula: 1/Δδi=(1/KΔδc)(1/Hi)+1/Δδc where the Δδi represents the observed chemical shift difference between the free guest and complexed guest, Hi represents the total host concentration, and Δδc represents the guest chemical shift difference between a completely complexed state and completely free state. In order to use Benesi-Hildebrand equation, the host molecule must be present in excess. The stability constant was determined from simultaneous fits of three chemical shift data sets. The stability constant of 7-hydroxycarbonyl-2,4,9-trithiaadamantane/β-cyclodextrin in water was thus measured to be 1550 M^−1 (logK=3.19). […]

solubility in water ([2]; water, without β-cyclodextrin) | change of solubility in water with β-cyclodextrin present ([2]; β-cyclodextrin present, 1:1 mixture (3.5×10^−3 M) formed a clear solution in D2O) | association (stability) constant of the inclusion complex with β-cyclodextrin ([3]; 1:1 complex, in water (D2O), room temperature, 1H NMR titration) | logK of the stability constant of the β-cyclodextrin inclusion complex ([3]; in water) | Structure (SMILES) | stability constant K of the β-cyclodextrin inclusion complex (comparison) [1]
 |  |  |  | O=C(O)C12CC3CC(CC(C3)C1)C2 [1-adamantane carboxylic acid] | 188 M⁻¹
dissolves only slightly | increased visibly | 1550 M⁻¹ | 3.19 | O=C(O)C12CC3SC(C1)SC(C2)S3 [7-hydroxycarbonyl-2,4,9-trithiaadamantane] | 
